Data published in US8404286B2, “Use of extracts or of extract compounds from Piper cubeba L. as active components in a medicament for the treatment of cancer” (Viridis Pharmaceutical Limited, priority 2007, dated 2013).

How the values were obtained:
[1] = biological target: T1, 5α-reductase type II (Homo sapiens, UniProt P31213); test: Inhibition of the 5α-reductase type II activity (HEK293 homogenate, 3H-testosterone to 3H-DHT); assay type: biochemical; settings: homogenate of HEK293 cells over expressing the enzyme
T1 construct: expressed in transfected cells; host or cells: HEK293 (homogenate)
T1 sequence (P31213 1-254): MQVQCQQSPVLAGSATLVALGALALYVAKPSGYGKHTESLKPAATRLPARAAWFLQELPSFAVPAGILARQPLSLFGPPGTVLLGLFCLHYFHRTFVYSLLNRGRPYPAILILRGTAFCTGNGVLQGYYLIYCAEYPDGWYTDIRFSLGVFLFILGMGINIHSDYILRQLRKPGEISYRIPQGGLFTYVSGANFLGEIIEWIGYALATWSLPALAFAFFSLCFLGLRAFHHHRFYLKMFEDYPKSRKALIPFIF
Protocol: The inhibition of the 5α-reductase type II activity by means of the liquid extract P9605 prepared according to example 1 was determined.
The assay was realized with a homogenate of HEK293 cells that over express the 5α-reductase type II (Reichert W., Hartmann R. W. and Jose J.; 2001, Journal Enzyme Inhibition, Vol. 16, 47-53).
The influence of the extract prepared according to the present invention and of the pure substance Cubebin on the activity of the 5α-reductase type II was determined by means of the measurement of the conversion of ^3H-testosterone in ^3H-DHT.
As control substance was used the known 5α-reductase inhibitor “Finasterid”.
All obtained datas are given in percents with regard to the solvent control (test without extract); there are given the average values with Standard deviation from 4 experiments with 3-fold repetition.

[2] = test system: androgen receptor; test: Amount of androgen receptor by Western-blot analysis; assay type: cell-based; settings: 2 days, 10% FBS
Protocol: The influence of the generation of androgen receptors by means of the liquid extract P9605 prepared according to example 1 was determined.
Thereby in one experiment LNCap cells were cultivated during 2 days in 10% FBS culture medium to which were added different concentrations either of the extract prepared according to the present invention or of the pure substance Cubebin.
Then was determined the change of the amount of the androgen receptor by means of the Western-blot analysis.
In FIG. 10 are shown the bands of the androgen receptor.

[3] = test system: prostate specific antigen (PSA); test: Secretion of the prostate specific antigen (immuno-assay, PSA/DNA); assay type: cell-based; settings: LNCap, 2 days, 10% CSS, different concentrations
[4] = test system: LNCap cells; test: Inhibition of the cell proliferation, LNCap cells; assay type: cell-based; settings: 4 days, 10% FBS culture medium, versus solvent control
Protocol: (§1) With the liquid extract P9605 prepared according to example 1 were carried out cell proliferation tests. As control was carried along a typical substance of content of the cubeben fruits, the lignan Cubebin.
(§2) For the measurement of the inhibition of the cell proliferation this extract was added to LNCap and to PC-3 cells. The so treated cells were cultivated during 4 days in 10% FES culture medium.
(§3) For comparison the pure lignan Cubebin, that is contained in the extract prepared according to the invention and according to example 1 in an amount up to 20 m/m of the dry substance, was added also to LNCap and to PC-3 cells. The so treated cells were cultivated during 4 days in 10 FBS culture medium.
(§4) Thereby it was proceeded according to T. Lindl, Zell- und Gewebekultur, 4th revised edition, 2000, Spektrum Akademischer Verlag, Heidelberg.
(§5) All obtained datas are given in percents with regard to the solvent control (test without extract and without Cubebin); there are given the average values with Standard deviation from 4 experiments with 3-fold repetition.

[5] = test system: PC-3 cells; test: Inhibition of the cell proliferation, PC-3 cells; assay type: cell-based; settings: PC-3, 4 days, 10% FBS culture medium, versus solvent control
Protocol: as §1, §2, §3, §4, §5

[6] = test system: LNCap cells; test: Apoptosis immuno-assay (mono and oligonucleosomes); assay type: cell-based; settings: 2 days, 10% FBS
Protocol: The induction of apoptosis by means of the liquid extract P9605 prepared according to example 1 was determined.
As preliminary test was added for the measurement of the induction of apoptosis the tumor necrosis factor TNF-α alone as well as in combination with 100 nM dihydrotestosterone, abbreviated with DHT, to LNCap cells. The so treated cells were cultivated during 2 days in 10% FBS culture medium.
The apoptosis of the cells was measured by applying a commercial apoptosis-immuno-assay-kit in which are detected specifically the DNA and histon fragments that are present as mono and oligonucleosomes.
Analogous experiments were carried out with DHT alone as well as in combination with 10 μg/ml of the extract prepared according to the present invention.

[7] = test system: LNCap cells; settings: control value at zero extract; cited from earlier work
[8] = test system: LNCap cells; settings: control value at zero extract; cited from earlier work; remark: listed apart in the source

Molecule: CC(C)(C)NC(=O)[C@H]1CC[C@H]2[C@@H]3CC[C@H]4NC(=O)C=C[C@]4(C)[C@H]3CC[C@]12C [Finasterid]
- inhibitive effect on the activity of the 5α-reductase type II [1]: inhibiting effect

Molecule: OC1OC[C@H](Cc2ccc3c(c2)OCO3)[C@H]1Cc1ccc2c(c1)OCO2 (mixture of isomers) [Cubebin]
- androgen receptor denseness in LNCap cells [2]: reduced increasingly in dependency of the dose
- IC50-value, 5α-reductase type II [1]: 9.9 µg/mL
- inhibitive effect on the activity of the 5α-reductase type II [1]: inhibitive effect
- inhibition of the secretion of PSA (PSA/DNA) [3]: inhibit the secretion of the prostate specific antigen (PSA) in dependency of the respective dose
- anti-proliferate effect on LNCap cells [4]: anti-proliferate effect on LNCap and PC-3 cells in dependency of the respective dose
- anti-proliferate effect on PC-3 cells [5]: anti-proliferate effect on LNCap and PC-3 cells in dependency of the respective dose

Molecule: TNF-α
- induction of apoptosis ([6]; TNF-α alone): induces the apoptosis of the tumor cells in dependency of the dose

Molecule: C[C@]12CCC(=O)C[C@@H]1CC[C@@H]1[C@@H]2CC[C@]2(C)[C@@H](O)CC[C@@H]12 [DHT, dihydrotestosterone]
- effect on the TNF-α induced apoptosis ([6]; TNF-α in combination with 100 nM DHT): revoked completely or nearly completely
- effect of DHT on the cell proliferation [7]: enhances the cell proliferation
- effect of DHT on the DNA synthesis [8]: enhances the DNA synthesis
